# Patent publication US4912036A, “Rapid differentiation of bacteria using cyclic polypeptide antibiotics” (Eastman Kodak Company, priority 1986, dated 1990)
# How the values were obtained:
# P. aeruginosa = assay: MTT reduction solution assay, ΔOD 540 nm; format: cell-based, Pseudomonas aeruginosa; conditions: P. aeruginosa (-) 5×10^7, gramicidin S 0.00625 mg/ml, 37° C.
# Description: (§1) These examples illustrate the differentiation of bacteria using a tetrazolium salt and phenolic dye as the reducible compounds and two cyclic polypeptide antibiotics according to the present invention. The tetrazolium salt was 3-(4,5-dimethyl-2-thiazolyl) -2,5-diphenyl-2H-tetrazolium bromide (MTT) which forms a colored formazan dye when reduced. The phenolic dye was 2,6-dichloroindophenol (DCIP) which forms a colorless species when reduced.
# (§2) Solutions of the reducible compounds were prepared with the following: HEPES buffer (3 ml, 0.05 molar, pH 7.5), TRITON X-100 nonionic surfactant (1% concentration), glucose (50 μl of 10% in water), tryptose (50 μl of a 10% solution in water), MTT (25 μl of 5 mg/ml methanol) or DCIP (25 μl of 3 mg/ml methanol) and phenazine methosultate ETA (25 μl of 3 mg/ml methanol).
# (§3) Test solutions were prepared from the following: reducible compound solution from above (200 μl), 50 μl of either gramicidin S solution (6 mg/ml methanol and 9 ml of buffer) or tyrocidin solution (100 mg/ml methanol and 8 ml of buffer) and 50 μl of cell suspension. […] The change in optical density (ΔOD) was determined after 30 minutes at 37° C. at 540 nm for the MTT assay and at 620 nm for the DCIP assay using a commercially available spectrophotometer.
# K. pneumoniae [1] = assay: MTT reduction solution assay, ΔOD 540 nm; format: cell-based, Klebsiella pneumoniae; conditions: K. pneumoniae (-) 5×10^7, gramicidin S 0.00625 mg/ml, 37° C.
# Description: as §1, §2, §3
# S. faecalis [2] = assay: MTT reduction solution assay, ΔOD 540 nm; format: cell-based, Streptococcus faecalis; conditions: S. faecalis (+) 5×10^7, gramicidin S 0.00625 mg/ml, 37° C.
# Description: as §1, §2, §3
# S. faecalis [3] = assay: DCIP reduction solution assay, ΔOD 620 nm; format: cell-based, Streptococcus faecalis; conditions: S. faecalis (+) 5×10^7, gramicidin S 0.00625 mg/ml, 37° C.
# Description: as §1, §2, §3
# P. vulgaris = assay: RIND VII reduction solution assay, ΔOD 635 nm; format: cell-based, Proteus vulgaris; conditions: P. vulgaris 7 × 10^7 /ml, antibiotic 10^-4 molar
# Description: (§4) Bacterial suspensions were prepared by growing the cells in BHT broth to stationary phase overnight at 37° C. P. auruginosa was grown with agitation. About 40 ml of each overnight culture was centrifuged, decanted and washed once with 0.05 molar potassium phosphate buffer or 0.05 molar N-2-hydroxy-ethylpiperazine-N'-2-ethanesulfonic acid (HEPES) buffer, pH 7.8, and resuspended in buffer.
# (§5) TERGITOL 7 anionic surfactant was used to differentiate viable bacteria according to the prior art method. Various concentrations of TERGITOL 7 surfactant were mixed with a 10% glucose solution (50 μl), 3-(4,5-dimethyl-2-thiazolyl)-2,5-diphenyl-2N-tetrazolium bromide (MTT) (25 μl at 5 mg/ml methanol) or a RIND VII dispersion (1.5 ml) and phenazine methosulfate ETA (25 μl at 3 mg/ml methanol). The volume of each test solution was brought to 3 ml with potassium phosphate buffer. A cell suspension (100 μl at about 10^8 cells/ml) was then added. The solutions were incubated at 37° C. for 15 and 30 minutes in the presence of either E. coli, a gram(-) bacterium, or S. aureus, a gram(+) bacterium. The amount of dye formed was then determined visually, and graded as follows: "O" indicates no dye formation, +/- indicates faint dye formation, 1+ indicates light dye formation, 2+ indicates moderate dye formation, 3+ indicates strong dye formation, and 4+ indicates very strong dye formation. […]
# K. pneumoniae [4] = assay: DCIP reduction solution assay, ΔOD 620 nm; format: cell-based, Klebsiella pneumoniae; conditions: K. pneumoniae (-) 5×10^7, gramicidin S 0.00625 mg/ml, 37° C.
# Description: as §1, §2, §3
# S. pyogenes = assay: RIND VII reduction solution assay, ΔOD 635 nm; format: cell-based, Streptococcus pyogenes; conditions: cell concentration 1.5 × 10^8 /ml, antibiotic 10^-4 molar
# S. aureus = assay: Inhibition of RIND IX reduction by various cyclic polypeptide antibiotics; format: cell-based, Staphylococcus aureus; conditions: for Corrected % Inhibition: 635 nm
# Description: The following materials were used in this example: stock solutions of RIND IX compound dispersion prepared as described above, glucose (10% in water), trimethyl-1,4-benzoquinone ETA (1.5 mg/ml methanol), and the antibiotics (1 mg/ml in dimethylsulfoxide). S. aureus cells were grown as described above. The final cell concentration in the assay mixture was about 4.3×10^8 cells/ml.
# Test solutions were prepared by adding in the order: 1.2 ml of HEPES buffer, 50 μl glucose solution, 1.5 ml of RIND IX dispersion, 100 μl of antibiotic solution, 100 μl of cell suspension and 25 μl of ETA solution. Control solutions were prepared as described in Examples 2 and 3. Optical density readings (OD) were measured at 635 nm at 0 minutes and after incubation at 37° C. for 30 minutes for test and control solutions, and the change in density (ΔOD) was determined. Table VI below lists the results, expressed as corrected percent inhibition of the reduction of the RIND compound. The corrected percent inhibition is calculated by dividing the difference between the ΔOD obtained from the Cell Control without antibiotic and the ΔOD of the test solution, by ΔOD of the Cell Control without antibiotic. All readings were corrected by subtracting readings of the appropriate background Controls.
# Solutions containing 2.9 ml HEPES, 50 μl of the antibiotic solution and 100 μl cell solution were incubated at 37° C. for 30 minutes, centrifuged for 10 minutes and decanted. The resulting pellet was then treated with 1.4 ml HEPES, 50 μl glucose solution, 1.5 ml RIND IX dispersion and 25 μl ETA solution, mixed well and the densities recorded as described above in Method 1. The corrected percent inhibition data was calculated as described in Method 1 above.
# K. pneumoniae [5] = assay: RIND VII reduction solution assay, ΔOD 635 nm; format: cell-based, Klebsiella pneumoniae; conditions: K. pneumoniae 7 × 10^7 /ml, antibiotic 10^-4 molar
# E. cloacae = assay: MTT reduction solution assay, ΔOD 540 nm; format: cell-based, Enterobacter cloacae; conditions: E. cloacae (-) 5×10^7, gramicidin S 0.00625 mg/ml, 37° C.
# Description: as §1, §2, §3
# S. faecalis [6] = assay: RIND VII reduction solution assay, ΔOD 635 nm; format: cell-based, Streptococcus faecalis; conditions: S. faecalis 7 × 10^7 /ml, antibiotic 10^-4 molar
# Description: as §4, §5
substance,measurement,setting,value
gramicidin S,"ΔOD, 540 nm after 30 Minutes",P. aeruginosa,0.955
same,"ΔOD, 540 nm after 30 Minutes",K. pneumoniae [1],1.207
same,"ΔOD, 540 nm after 30 Minutes",S. faecalis [2],0.073
same,"ΔOD, 620 nm after 30 Minutes",S. faecalis [3],0.066
same,Corrected ΔOD (15 Minutes),P. vulgaris,> 2.0
same,"ΔOD, 620 nm after 30 Minutes",K. pneumoniae [4],1.062
same,Corrected ΔOD (15 Minutes),S. pyogenes,0.186
same,"inhibition of the ability of S. aureus to reduce the RIND compound, in words",S. aureus; Methods 1 and 2,"inhibits the ability of S. aureus, a gram-positive bacterium, to reduce the RIND compound"
same,Corrected % Inhibition,"S. aureus; Test Method 1 (antibiotic in the test solution), S. aureus about 4.3×10^8 cells/ml, 100 μl of 1 mg/ml antibiotic solution, 30 minutes at 37° C.",95.6%
same,Corrected % Inhibition,"S. aureus; Test Method 2 (cells preincubated with 50 μl antibiotic solution 30 minutes, centrifuged, pellet assayed), S. aureus",80.0%
same,Corrected ΔOD (15 Minutes),K. pneumoniae [5],> 2.0
same,"ΔOD, 540 nm after 30 Minutes",E. cloacae,0.931
same,Corrected ΔOD (15 Minutes),S. faecalis [6],0.125
